Results published in patent publication US10738049B2, “N-{3-[3-cyclopropyl-5-(2-fluoro-4-iodophenylamino)-6,8-dimethyl-2,4,7-trioxo-3,4,6,7-tetrahydro-2H-pyrido[4,3-D]pyrimidin-1-YL]-phenyl}-cyclopropanecarboxamide dimethyl sulfoxide solvate as an MEK1/2 inhibitor” (R-PHARM JOINT STOCK COMPANY (R-PHARM, JSC), priority 2016, dated 2020).
pIC50: −log10 of the molar value. In brackets after ≈: the same amount, converted by molar mass. Where two headings read alike, the source gives them in different places.

How the values were obtained:
MEK1 = biological target: T1, MEK1 (Homo sapiens, UniProt Q02750); assay: MEK1 kinase activity, Z'-LYTE screening platform; assay type: biochemical; conditions: 100 μM ATP, 1% DMSO
T1 construct: purchased Life Technologies
Description: Assay. The substances were tested for the effect on MEK1 kinase activity using Z′-LYTE screening platform (Life Technologies). Concentration of DMSO in the reaction mixture was 1%. Dilute 100 nL of 100-fold sinks of the substances under study in 100% DMSO in 2.4 μL of kinase buffer (50 mM of HEPES pH 7.5, 0.01% BRIJ-35, 10 mM of mgCl2, 1 mM of EGTA) and add to 5 μL of 2-fold Substrate/Kinase mixture (MEK1/inactivated MARK1 (ERK2)/Ser/Thr03, final content 0.08-0.31 ng of MEK1, 105 ng of inactivated MARK1 (ERK2), and 2 μM of Ser/Thr03) in 384-well plate (black, small-volume manufactured by Corning, κaT. #3676). Pre-incubate the substances with kinases for 10 min at ambient temperature. After that add 2.5 μL of 4-fold ATP solution to start the reaction (final concentration of ATP in the reaction mixture is 100 μM). After 30 sec of incubation on a shaker incubate the reaction for 60 min at ambient temperature. Then add 5 μL of Reagent B (Life Technologies) diluted as 1:1024 and incubate for 60 min more at ambient temperature. Measure fluorescence with excitation at 400 nm and emission at 445 nm and 520 nM.
Calculate % phosphorylation as follows:
Calculate % inhibition as follows:
C100%=average coumarin emission signal, 100% phosphorylation control;
C0%=average coumarin emission signal, 0% phosphorylation control;
F100%=average fluorescein emission signal, 100% phosphorylation control; […]

[1] = Body weight and deaths during treatment in the xenograft study
Description: The animals were treated with the test products for 21 days.
When average tumor size reached 100-200 mM^3 the animals were subdivided into experimental groups and treatment with the test drugs was started. The products were administered intragastrically daily, while the control group received the solvent.
Also, health and behavior of animals were monitored, numbers of lethal outcomes and tumor regressions were recorded: Regression=(Vini−Vfin)/Vi×100%,
Measurement of animal weights was carried out 3 times a week.

[2] = tested on: A375 human melanoma xenograft; assay: Study of efficiency in human melanoma xenograft model; assay type: in vivo, NMRI nude female mice; conditions: for T/C / Vavg (average tumor volume): after 21 days of treatment
Description: Study of efficiency in human melanoma xenograft model. The study was carried out in ProQinase GmbH Freiburg, Breisacher Str. 117, D-79106 Freiburg, GERMANY.
A375 human melanoma cells were cultivated in vials with DMEM medium with addition of 10% FBS in a humid atmosphere containing 95% of air and 5% of CO2 at 37° C. Cancer cells were passaged to animals after an adaptation period. For that end the cells were collected using TrypLE Express (Invitrogen), washed and suspended in sterile PBS to the final concentration of 3×10^7 cells/mL. This cell suspension was injected subcutaneously (SC) in mice left flanks (3×10^6 cells or 100 μL per mouse).
Measurement of subcutaneously implanted tumors was carried out 2 times a week starting from the day of cells introduction. Tumor volume (mm^3) was determined by the equation: V=L×W^2/2,
where L corresponds to maximum and W to minimum tumor diameter (mm). The measurements were carried out using a slide caliper.
The study included calculation of tumor growth inhibition values: T/C=Vexp/Vctrl×100%,
Vctrl=average tumor volume in the control group;
Vexp=average tumor volume in the experimental group.
Vini=initial tumor volume at the start of treatment;
Vfin=tumor volume at the end of treatment.

[3] = Determination of thermodynamic solubility; assay type: physicochemical; conditions: for solubility at 24 h: 25 °C, thermodynamic from solid
Description: Use additional quantities of the substances until the solution becomes turbid. Incubate vials with the solution for 24 h at 25° C. with mixing to achieve equilibrium between saturated solution and precipitate. Upon equilibration filter 200 μL of the solution (in duplicate) through a 96-well filter plate (Millipore) to separate the precipitate. Determine concentrations of the compounds in the filtrate by spectrophotometry using standard calibration curve. Carry out measurement of optical absorption spectrum of the substance and plot calibration curve at the selected wavelength (usually corresponding to the substance absorption maximum λmax). Calculate concentration of the substance in the filtrate (i.e., solubility) by the following equation: Solubility=(ODλmax filtrate−ODλmax blank)/Slope×1.67×Filtrate dilution,
ODλmax filtrate=absorbance of the filtrate:
ODλmax blank=absorbance of the blank solution without the substance;
Slope=slope of the calibration curve;
1.67=dilution factor for the filtrate in acetonitrile;
Filtrate dilution=dilution factor for the filtrate in the buffer.

[4] = single-dose oral, mice; cited from earlier work
[5] = cited from earlier work
[6] = 0.3 mg/kg intragastrically daily
[7] = 1.0 mg/kg intragastrically daily
[8] = 3.0 mg/kg intragastrically daily
[9] = 10.0 mg/kg intragastrically daily
[10] = 4% dimethyl sulfoxide and 96% corn oil, oil or lipid, 4% dimethyl sulfoxide, 96% corn oil, read-out: Solubility in a mixture of 4% sulfoxide and 96% corn oil
[11] = dimethyl sulfoxide, organic solvent or mixture, read-out: Solubility in dimethyl sulfoxide
[12] = water, water, read-out: Solubility in water

T1 sequence (Q02750 whole entry): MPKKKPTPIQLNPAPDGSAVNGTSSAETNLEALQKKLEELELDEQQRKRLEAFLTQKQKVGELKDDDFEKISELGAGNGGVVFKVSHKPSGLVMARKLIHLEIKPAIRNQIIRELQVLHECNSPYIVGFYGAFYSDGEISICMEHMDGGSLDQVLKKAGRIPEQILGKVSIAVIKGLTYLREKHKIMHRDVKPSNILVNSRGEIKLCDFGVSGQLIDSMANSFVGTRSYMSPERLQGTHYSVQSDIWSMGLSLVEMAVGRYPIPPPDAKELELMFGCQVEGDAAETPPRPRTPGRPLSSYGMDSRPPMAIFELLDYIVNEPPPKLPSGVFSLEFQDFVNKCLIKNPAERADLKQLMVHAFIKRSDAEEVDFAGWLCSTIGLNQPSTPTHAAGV

SMILES: Cc1c(=O)n(C)c(Nc2ccc(I)cc2F)c2c(=O)n(C3CC3)c(=O)n(-c3cccc(NC(=O)C4CC4)c3)c12 [Compound of formula 1, N-{3-[3-cyclopropyl-5-(2-fluoro-4-iodophenylamino)-6,8-dimethyl-2,4,7-trioxo-3,4,6,7-tetrahydro-2H-pyrido[4,3-d]pyrimidin-1-yl]-phenyl}-cyclopropanecarboxamide dimethyl sulfoxide solvate]
- pIC50 (MEK1): 8.10
- Animal body weight loss as compared to the treatment start date ([1]; 10 mg/kg, throughout the study): not more than 20%
- Animal deaths ([1]; any of the doses studied (up to 10 mg/kg)): did not cause animal deaths
- Effect on tumor growth ([2]; 0.3 mg/kg intragastric): no effect on tumor growth
- T/C [2, 6]: 39.5%
- Vavg (average tumor volume) [2, 6]: 834.3 mm^3
- Animals with tumor regression ([2]; 1 mg/kg): three of eight
- T/C [2, 7]: 6.7%
- Vavg (average tumor volume) [2, 7]: 140.5 mm^3
- Animals with tumor regression ([2]; 3 mg/kg): 7/8
- T/C [2, 8]: 4.0%
- Vavg (average tumor volume) [2, 8]: 84.5 mm^3
- Animals with tumor regression ([2]; 10 mg/kg): 8/8
- T/C [2, 9]: 1.2%
- Vavg (average tumor volume) [2, 9]: 26.1 mm^3
- solubility at 24 h [3, 10]: 7000 µg/mL
- solubility at 24 h [3, 11]: 47000 µg/mL
- Solubility in dimethyl sulfoxide relative to Trametinib ([3]; dimethyl sulfoxide, ratio to Trametinib): more than 2 times
- solubility at 24 h [3, 12]: < 1000 µg/mL

SMILES: CC(=O)Nc1cccc(-n2c(=O)n(C3CC3)c(=O)c3c(Nc4ccc(I)cc4F)n(C)c(=O)c(C)c32)c1 [Mekinist, Trametinib dimethyl sulfoxide, reference compound]
- Animal deaths ([1]; 3 mg/kg intragastric for 9 days): two
- LD50 [4]: > 2000 mg/kg
- Animals with tumor regression ([2]; 3 mg/kg intragastric): 100 % animals
- T/C [2, 8]: 1.0%
- Vavg (average tumor volume) [2, 8]: 21.1 mm^3

SMILES: CC(=O)Nc1cccc(-n2c(=O)n(C3CC3)c(=O)c3c(Nc4ccc(I)cc4F)n(C)c(=O)c(C)c32)c1 [Trametinib, reference compound]
- Solubility in aqueous media ([5]; between pH=2 and pH=8): practically insoluble
- Solubility in organic solvents ([5]; organic solvents including highly polar ones): very slightly soluble
- solubility at 24 h [3, 10]: 3000 µg/mL (≈ 4.87 mM)
- solubility at 24 h [3, 11]: 22000 µg/mL (≈ 35.7 mM)
- solubility at 24 h [3, 12]: < 1000 µg/mL
